The results in this text go back to BindingDB's records for patent US20240018157 (Schrödinger, 2024).

For the experiment, the target named is T1, Mucosa-associated lymphoid tissue lymphoma translocation protein 1 (Homo sapiens, UniProt Q9UDY8).
T1 sequence (Q9UDY8 whole entry): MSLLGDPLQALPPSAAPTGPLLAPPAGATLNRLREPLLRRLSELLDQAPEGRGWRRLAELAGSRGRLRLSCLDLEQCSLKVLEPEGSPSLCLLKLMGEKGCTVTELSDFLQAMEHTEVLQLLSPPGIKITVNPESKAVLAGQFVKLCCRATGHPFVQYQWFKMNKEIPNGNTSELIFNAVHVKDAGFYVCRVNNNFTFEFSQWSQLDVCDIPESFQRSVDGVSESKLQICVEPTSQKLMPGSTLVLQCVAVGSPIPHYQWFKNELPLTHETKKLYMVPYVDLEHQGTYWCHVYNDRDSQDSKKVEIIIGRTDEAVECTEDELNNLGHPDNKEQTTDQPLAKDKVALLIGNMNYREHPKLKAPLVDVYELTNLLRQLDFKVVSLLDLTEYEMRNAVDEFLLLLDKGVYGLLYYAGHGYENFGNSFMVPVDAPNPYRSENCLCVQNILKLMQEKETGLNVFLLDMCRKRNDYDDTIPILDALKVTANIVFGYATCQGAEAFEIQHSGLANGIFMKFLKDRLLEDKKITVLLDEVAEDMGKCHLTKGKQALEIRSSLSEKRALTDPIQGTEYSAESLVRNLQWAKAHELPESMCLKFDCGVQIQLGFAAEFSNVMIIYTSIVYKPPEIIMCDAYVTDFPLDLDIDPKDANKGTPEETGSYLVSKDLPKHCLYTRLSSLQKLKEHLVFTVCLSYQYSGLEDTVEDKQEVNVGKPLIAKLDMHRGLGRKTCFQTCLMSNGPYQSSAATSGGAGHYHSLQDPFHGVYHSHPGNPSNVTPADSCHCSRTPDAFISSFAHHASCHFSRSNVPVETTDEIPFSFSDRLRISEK
Kind of experiment: MALT1 Protease Assay 2. The procedure: Test compounds were dissolved in 100% DMSO at stock of 10 mM, with final DMSO concentration 0.1%. Test compounds were pre-incubated with MALT1 protein for 2 h at room temperature.

`CN(C)C(=O)c1ncc(NC(=O)N2C[C@@](C)(C(F)(F)F)c3c2cnc2cc(Cl)nn32)cc1C(F)F` [US20240018157, Example 122] had an IC50 of less than 10 nM.

`Cc1cc(NC(=O)N2C[C@](C)(C(F)(F)F)c3c2cnc2cc(F)nn32)cnc1-n1nccn1` [US20240018157, Example 124]: the IC50 is greater than 1000 nM.

Regarding `Cc1cc(NC(=O)N2C[C@@](C)(C(F)(F)F)c3c2cnc2cc(F)nn32)cnc1-n1nccn1` [US20240018157, Example 125], the IC50 is less than 10 nM.

As for `C[C@H](O)c1cnn(-c2ncc(NC(=O)N3C[C@@](C)(C(F)(F)F)c4c3cnc3cc(Cl)nn43)cc2C(F)F)n1` [US20240018157, Example 126], the IC50 is less than 10 nM.

In the case of `C[C@@H](O)c1cnn(-c2ncc(NC(=O)N3C[C@@](C)(C(F)(F)F)c4c3cnc3cc(Cl)nn43)cc2C(F)F)n1` [US20240018157, Example 127], the IC50 was less than 10 nM.

The compound `C[C@@]1(C(F)F)CN(C(=O)Nc2cnc(-n3nccn3)c(Cl)c2)c2cnc3cc(Cl)nn3c21` [US20240018157, Example 128] returned an IC50 of less than 10 nM.

`C[C@]1(C(F)F)CN(C(=O)Nc2cnc(-n3nccn3)c(Cl)c2)c2cnc3cc(Cl)nn3c21` [US20240018157, Example 129] showed an IC50 of 10 to 100 nM.

For the compound `CO[C@]1(C(F)(F)F)CN(C(=O)Nc2cnc(-n3nccn3)c(Cl)c2)c2cnc3cc(Cl)nn3c21` [US20240018157, Example 135], the IC50 is 100 to 1000 nM.

With `CO[C@@]1(C(F)(F)F)CN(C(=O)Nc2cnc(-n3nccn3)c(Cl)c2)c2cnc3cc(Cl)nn3c21` [US20240018157, Example 136], the IC50 was less than 10 nM.

Take `C[C@]1(C(F)(F)F)CN(C(=O)Nc2cnnc(C(F)F)c2)c2cnc3c(F)c(Cl)nn3c21` [US20240018157, Example 137]: the IC50 is greater than 1000 nM.

As to `C[C@@]1(C(F)(F)F)CN(C(=O)Nc2cnnc(C(F)F)c2)c2cnc3c(F)c(Cl)nn3c21` [US20240018157, Example 138], the IC50 was in the range of 10 to 100 nM.

In the case of `C[C@]1(C(F)(F)F)CN(C(=O)Nc2cnc(-n3nccn3)c(Cl)c2)c2cnc3c(F)c(F)nn3c21` [US20240018157, Example 139], the IC50 is greater than 1000 nM.

`C[C@@]1(C(F)(F)F)CN(C(=O)Nc2cnc(-n3nccn3)c(Cl)c2)c2cnc3c(F)c(F)nn3c21` [US20240018157, Example 140] gave an IC50 of less than 10 nM.

On to `C[C@]1(C(F)(F)F)CN(C(=O)Nc2cnnc(C(F)F)c2)c2cnc3c(F)c(F)nn3c21` [US20240018157, Example 141], for which the IC50 is greater than 1000 nM.

In turn, `C[C@@]1(C(F)(F)F)CN(C(=O)Nc2cnnc(C(F)F)c2)c2cnc3c(F)c(F)nn3c21` [US20240018157, Example 142] showed an IC50 of 10 to 100 nM.

For the compound `O=C(Nc1cnnc(C(F)F)c1)N1C[C@@](C2CC2)(C(F)(F)F)c2c1cnc1cc(Cl)nn21` [US20240018157, Example 144], the IC50 lay in the range of 10 to 100 nM.

As for `O=C(Nc1cnnc(C(F)F)c1)N1C[C@](C2CC2)(C(F)(F)F)c2c1cnc1cc(Cl)nn21` [US20240018157, Example 145], the IC50 was in the range of 100 to 1000 nM.

As to `C[C@@]1(C(F)(F)F)CN(C(=O)Nc2cnc(-n3nccn3)c(Cl)c2)c2cnc3c(F)cnn3c21` [US20240018157, Example 146], the IC50 was less than 10 nM.

On to `C[C@]1(C(F)(F)F)CN(C(=O)Nc2cnc(-n3nccn3)c(Cl)c2)c2cnc3c(F)cnn3c21` [US20240018157, Example 147], for which the IC50 was greater than 1000 nM.

In the case of `C[C@@]1(C(F)(F)F)CN(C(=O)Nc2cnc(C(=O)NC3CC3)c(C(F)F)c2)c2cnc3cc(Cl)nn3c21` [US20240018157, Example 150], the IC50 was less than 10 nM.

`CN(C(=O)c1ncc(NC(=O)N2C[C@@](C)(C(F)(F)F)c3c2cnc2cc(Cl)nn32)cc1C(F)F)C1CC1` [US20240018157, Example 151] yielded an IC50 of less than 10 nM.

For `Cc1cn2ncc3c(c2n1)[C@](C)(C(F)(F)F)CN3C(=O)Nc1cnc(-n2nccn2)c(Cl)c1` [US20240018157, Example 152], the IC50 is less than 10 nM.

The compound `Cc1cn2ncc3c(c2n1)[C@@](C)(C(F)(F)F)CN3C(=O)Nc1cnc(-n2nccn2)c(Cl)c1` [US20240018157, Example 153] had an IC50 of 10 to 100 nM.

`Cc1nnc(C(F)F)cc1NC(=O)N1C[C@@](C)(C(F)(F)F)c2c1cnc1cc(Cl)nn21` [US20240018157, Example 154] displayed an IC50 of 100 to 1000 nM.

Regarding `C[C@]1(C(F)(F)F)CN(C(=O)Nc2cnnc(C(F)F)c2)c2cnc3cc(CC(F)F)nn3c21` [US20240018157, Example 155], the IC50 was 100 to 1000 nM.

`C[C@@]1(C(F)(F)F)CN(C(=O)Nc2cnnc(C(F)F)c2)c2cnc3cc(CC(F)F)nn3c21` [US20240018157, Example 156] displayed an IC50 greater than 1000 nM.

With `CCc1nn2c3c(cnc2c1N)N(C(=O)Nc1cnc(-n2nccn2)c(Cl)c1)C[C@]3(C)C(F)(F)F` [US20240018157, Example 157], the IC50 lay in the range of 100 to 1000 nM.

`CCc1nn2c3c(cnc2c1N)N(C(=O)Nc1cnc(-n2nccn2)c(Cl)c1)C[C@@]3(C)C(F)(F)F` [US20240018157, Example 158]: the IC50 was greater than 1000 nM.

The compound `Cc1nn2c3c(cnc2c1N)N(C(=O)Nc1cnc(-n2nccn2)c(Cl)c1)C[C@]3(C)C(F)(F)F` [US20240018157, Example 159] displayed an IC50 of 10 to 100 nM.

`Cc1nn2c3c(cnc2c1N)N(C(=O)Nc1cnc(-n2nccn2)c(Cl)c1)C[C@@]3(C)C(F)(F)F` [US20240018157, Example 160] returned an IC50 greater than 1000 nM.

In turn, `Cc1nnc(C(F)F)cc1NC(=O)N1C[C@@](C)(C(F)(F)F)c2c1cnc1cc(F)nn21` [US20240018157, Example 161] yielded an IC50 of 100 to 1000 nM.

In turn, `CN1CC(n2nc(NC(=O)N3C[C@@](C)(C(F)(F)F)c4c3cnc3cc(Cl)nn43)cc2Cl)C1` [US20240018157, Example 163] registered an IC50 greater than 1000 nM.

For the compound `C[C@@]1(C(F)(F)F)CN(C(=O)N[C@@H]2CCC(F)(F)C2)c2cnc3cc(Cl)nn3c21` [US20240018157, Example 165], the IC50 is greater than 1000 nM.

`C[C@@]1(C(F)(F)F)CN(C(=O)N[C@H]2CCC(F)(F)C2)c2cnc3cc(Cl)nn3c21` [US20240018157, Example 166] yielded an IC50 greater than 1000 nM.

Regarding `CN1CCOC(c2ncc(NC(=O)N3C[C@@](C)(C(F)(F)F)c4c3cnc3cc(Cl)nn43)cc2Cl)C1` (some centres undefined) [US20240018157, Example 167], the half-inhibitory concentration (IC50) is greater than 1000 nM.

`C[C@@]1(C(F)(F)F)CN(C(=O)Nc2cnc(C3(O)CCC3)c(Cl)c2)c2cnc3cc(Cl)nn3c21` [US20240018157, Example 168]: the IC50 was greater than 1000 nM.

`CN1CC(Nc2cc(NC(=O)N3C[C@@](C)(C(F)(F)F)c4c3cnc3cc(Cl)nn43)cc(C(F)(F)F)n2)C1` [US20240018157, Example 169]: the IC50 was greater than 1000 nM.

As for `CC1(C)CC(NC(=O)N2C[C@@](C)(C(F)(F)F)c3c2cnc2cc(Cl)nn32)CCO1` (some centres undefined) [US20240018157, Example 170], the IC50 is greater than 1000 nM.

As to `C[C@@]1(C(F)(F)F)CN(C(=O)N[C@@H]2CCCC[C@H]2O)c2cnc3cc(Cl)nn3c21` [US20240018157, Example 171], the IC50 was greater than 1000 nM.

For `CC1CC(NC(=O)N2C[C@@](C)(C(F)(F)F)c3c2cnc2cc(Cl)nn32)CCO1` (some centres undefined) [US20240018157, Example 173], the IC50 was greater than 1000 nM.

Turning to `C[C@@]1(C(F)(F)F)CN(C(=O)NC2CCC3(CCCO3)CC2)c2cnc3cc(Cl)nn3c21` (some centres undefined) [US20240018157, Example 174], the IC50 is greater than 1000 nM.

In the case of `C[C@@]1(C(F)(F)F)CN(C(=O)n2nc(C(F)(F)F)cc2N)c2cnc3cc(Cl)nn3c21` [US20240018157, Example 175], the IC50 was greater than 1000 nM.

The compound `Cc1cc(NC(=O)N2C[C@@](C)(C(F)(F)F)c3c2cnc2cc(Cl)nn32)nc2c1cnn2C` [US20240018157, Example 176] gave an IC50 greater than 1000 nM.

With `C[C@@]1(C(F)(F)F)CN(C(=O)n2nc(C(F)F)cc2N)c2cnc3cc(Cl)nn3c21` [US20240018157, Example 177], the IC50 was greater than 1000 nM.

Take `CN1CC(Oc2cc(C(F)F)cc(NC(=O)N3C[C@@](C)(C(F)(F)F)c4c3cnc3cc(Cl)nn43)n2)C1` [US20240018157, Example 178]: the IC50 is greater than 1000 nM.

For the compound `C[C@@]1(C(F)(F)F)CN(C(=O)Nc2cc(C(F)F)ns2)c2cnc3cc(Cl)nn3c21` [US20240018157, Example 179], the IC50 was greater than 1000 nM.

`C[C@@]1(C(F)(F)F)CN(C(=O)Nc2cnc(-n3nccn3)c(C(F)(F)F)c2)c2cnc3cc(F)nn3c21` [US20240018157, Example 181] displayed an IC50 of less than 10 nM.

On to `C[C@]1(C(F)(F)F)CN(C(=O)Nc2cnc(-n3nccn3)c(C(F)(F)F)c2)c2cnc3cc(F)nn3c21` [US20240018157, Example 182], for which the IC50 is greater than 1000 nM.

Compound `C[C@H](O)c1cnnn1-c1ncc(NC(=O)N2C[C@@](C)(C(F)(F)F)c3c2cnc2cc(Cl)nn32)cc1C(F)F` [US20240018157, Example 184] had an IC50 of 10 to 100 nM.
